According to paper PMC6399351, “Cationic Intrinsically Disordered Antimicrobial Peptides (CIDAMPs) Represent a New Paradigm of Innate Defense with a Potential for Novel Anti-Infectives” (Scientific Reports, 2019):
≈ marks a conversion by molar mass, not a printed value. Like-named read-outs stand apart in the source and are kept apart here. Square brackets hold non-standard residues; d marks the D form. Ends that are not written are not given here. Peptide text beside a SMILES is read from it. * marks the point of attachment. Palmitoyl = CCCCCCCCCCCCCCCC(=O)*; Dap = NC[C@H](N)C(=O)O

What was measured:
[1] = tested on: Klebsiella pneumonia ATCC 700603; settings: MDR strain; CLSI, Mueller–Hinton broth, 5 × 10^5 CFU/mL, 18 h 37 °C, by CO-ADD
[2] = tested on: Cryptococcus neoformans ATCC 208821; test: CO-ADD MIC, antifungal assay (CLSI); format: cell-based; settings: Yeast Nitrogen Base broth, 24 h 35 °C, by CO-ADD
Method: (§1) Fungi strains were cultured for 3 days on Yeast Extract-Peptone Dextrose (YPD) agar at 30 °C. A yeast suspension of 1 × 10^6 to 5 × 10^6 cells/mL (as determined by OD530) was prepared from five colonies. These stock suspensions were diluted with Yeast Nitrogen Base (YNB) broth to a final concentration of 2.5 × 10^3 CFU/mL. […] Plates were covered and incubated at 35 °C for 24 h without shaking.

[3] = tested on: Candida albicans ATCC 90028; test: CO-ADD MIC, antifungal assay (CLSI); format: cell-based; settings: Yeast Nitrogen Base broth, 24 h 35 °C, by CO-ADD
Method: as §1

[4] = tested on: Acinetobacter baumannii ATCC 19606; test: CO-ADD MIC, broth microdilution (CLSI); format: cell-based; settings: Mueller–Hinton broth, 5 × 10^5 CFU/mL, 18 h 37 °C, by CO-ADD
Excerpt: (§2) They were defined as the lowest peptide
(§3) Further details of the screening

[5] = tested on: Pseudomonas aeruginosa ATCC 27853; test: CO-ADD MIC, broth microdilution (CLSI); format: cell-based; settings: Mueller–Hinton broth, 5 × 10^5 CFU/mL, 18 h 37 °C, by CO-ADD
Excerpt: as §2, §3

S. aureus ATCC 6538 = settings: CFU assay
E. coli ATCC 25922 = test: CO-ADD MIC, broth microdilution (CLSI); format: cell-based, Escherichia coli; settings: Mueller–Hinton broth, 5 × 10^5 CFU/mL, 18 h 37 °C, by CO-ADD
Excerpt: as §2, §3

[6] = tested on: Staphylococcus aureus ATCC 43300; settings: MRSA; CLSI, Mueller–Hinton broth, 5 × 10^5 CFU/mL, 18 h 37 °C, by CO-ADD
P. aeruginosa ATCC 10145 = settings: CFU assay, 10 mM NaP, pH 5.5, 0.25% glucose
[7] = 10 mM NaP, pH 5.5, 0.25% glucose
[8] = 10 mM NaP, pH 7.0, 0.25% glucose

Compound | Minimal inhibitory concentration (MIC) [1] | Minimal inhibitory concentration (MIC) [2] | Minimal inhibitory concentration (MIC) [3] | Minimal inhibitory concentration (MIC) [4] | Minimal inhibitory concentration (MIC) [5] | LD90 (S. aureus ATCC 6538; [7]) | Minimal inhibitory concentration (MIC) (E. coli ATCC 25922) | Minimal inhibitory concentration (MIC) [6] | LD90 (S. aureus ATCC 6538; value in molar units) | LD100 (P. aeruginosa ATCC 10145) | LD100 (S. aureus ATCC 6538; [7]) | LD100 (S. aureus ATCC 6538; [8]) | max.killing (S. aureus ATCC 6538; [8])
SHHRHFRSHQCRR [LCE-3C55-67] | >32 µg/mL | 8 µg/mL | >32 µg/mL | >32 µg/mL | >32 µg/mL | 2.35 µg/mL | >32 µg/mL | 32 µg/mL |  |  |  |  | 
CCCCCCCCCCCCCCCC(=O)N[C@@H](CCCNC(=N)N)C(=O)NCC(=O)N[C@@H](CO)C(=O)N[C@@H](CCCNC(=N)N)C(=O)N[C@@H](CO)C(=O)NCC(=O)N[C@@H](CCC(N)=O)C(=O)N[C@@H](CO)C(=O)N[C@@H](CO)C(=O)N[C@@H](CCCNC(=N)N)C(=O)NCC(=O)N[C@@H](CCC(=O)O)C(=O)N[C@@H](CCCNC(=N)N)C(=O)N[C@@H](CCCNC(=N)N)C(=O)NCC(=O)N[C@@H](CO)C(=O)N[C@@H](CO)C(=O)N[C@@H](CO)C(=O)NCC(=O)N[C@@H](CO)C(=O)N[C@@H](CO)C(=O)N[C@@H](CO)C(=O)N[C@@H](CCCNC(=N)N)C(=O)O [Pal-HR-1-11-3H3R] (Palmitoyl-RGSRSGQSSRGERRGSSSGSSSR-OH) | >32 µg/mL | 32 µg/mL (≈ 12.3 µM) | 32 µg/mL (≈ 12.3 µM) | 8 µg/mL (≈ 3.07 µM) | >32 µg/mL | 0.59 µg/mL | 32 µg/mL (≈ 12.3 µM) | 32 µg/mL (≈ 12.3 µM) |  |  |  |  | 
N=C(N)NCCC[C@H](NC(=O)[C@H](CCCNC(=N)N)NC(=O)[C@H](CS)NC(=O)[C@H](CCCNC(=N)N)NC(=O)[C@H](Cc1c[nH]cn1)NC(=O)[C@H](CO)NC(=O)[C@H](CCCNC(=N)N)NC(=O)[C@H](CS)NC(=O)[C@H](CS)NC(=O)[C@H](CCCNC(=N)N)NC(=O)[C@H](Cc1c[nH]cn1)NC(=O)[C@H](Cc1c[nH]cn1)NC(=O)[C@@H](N)CO)C(=O)O [LCE-3B56-68] (H-SHHRCCRSHRCRR-OH) | >32 µg/mL | 8 µg/mL (≈ 4.72 µM) | >32 µg/mL | >32 µg/mL | >32 µg/mL | 0.075 µg/mL | >32 µg/mL | 32 µg/mL (≈ 18.9 µM) | 44 nM |  |  |  | 
GRRGSGLGRSSSRGGRGSGSGR [HR 1-18,4H-4R] | >32 µg/mL | >32 µg/mL | >32 µg/mL | >32 µg/mL | >32 µg/mL | 150 µg/mL | >32 µg/mL | >32 µg/mL |  | 0.15 µg/mL | > 300 µg/mL | > 300 µg/mL | 98.8%
CCCCCCCCCCCCCCCC(=O)NCC(=O)N[C@@H](CN)C(=O)NCC(=O)N[C@@H](CN)C(=O)O [Pal-G-Dap4] (Palmitoyl-G[Dap]G[Dap]-OH) | >32 µg/mL | 1 µg/mL (≈ 1.84 µM) | 8 µg/mL (≈ 14.7 µM) | >32 µg/mL | >32 µg/mL | 2.35 µg/mL | >32 µg/mL | 8 µg/mL (≈ 14.7 µM) |  |  |  |  | 
